{"source": "patent US12516036B2", "about": "“Crystal form of 3-(4-(benzyloxy)phenyl)hex-4-inoic acid derivative” (HYUNDAI PHARM CO., LTD., priority 2019, dated 2026)", "key": {"[1]": {"assay": "Thermal stability test (thermal stress, 80° C.)", "format": "physicochemical", "details": "for Change in properties (appearance): 80° C.; for Purity (%) Initial: before thermal stress test; for Purity (%) Initial / Purity (%) Month 1 / Purity (%) Day 6 / Purity (%) Day 14: HPLC; for Purity change (%) Month 1 − Initial / Purity (%) Month 1 / Purity (%) Day 6 / Purity (%) Day 14: sealed vial, oven 80° C.; for Purity change (%) Month 1 − Initial: 1 month vs initial; for Purity (%) Month 1: 1 month; for Purity (%) Day 6: 6 days; for Purity (%) Day 14: 14 days; for Change in XRD pattern before and after thermal stress: 80° C. thermal stress (FIG. 11-14)", "experimental": "The crystal form I, crystal form II, and amorphous form samples of a compound of Chemical Formula 1 were subjected to a thermal stability test.\n0.3 g of each sample was input into a 20 mL vial (prepared 0.3 g*3 ea for each sample), and the vial was sealed by closing a lid and then allowed to stand in an oven set at 80° C. Afterward, the sample was taken out after 6 days, 14 days, and 1 month had elapsed, and the changes in properties, purity, and XRD pattern before and after thermal stress conditions were examined. • Purity was measured under the following conditions using a HPLC. • Column: YMC-Pack Pro C18, 5 um, 4.6×150 mm • Column temperature: 35° C. • Flow rate: 1.0 mL/min • Injection volume: 5 uL • Wavelength: 220 nm • Mobile Phase A: 0.1% TFA in H2O/MeOH=60/40 • Mobile Phase B: MeOH/0.1% TFA in ACN=60/40 • Gradient:\n• Diluent: H2O/ACN=80/20 • Run time: 40 min • Sample concentration: 0.7 mg/mL"}, "[2]": {"assay": "Compressibility test (bulk/tapped density, Carr index, Hausner ratio)", "format": "physicochemical", "details": "for Carr Index (CI): CI=100×(1−BD/TD); for Hausner ratio (Hr): Hr=TD/BD; for Description of flow: criteria of Table 5; for Bulk density BD / Tapped density TD: unit assumed", "description": "Since a drug that causes a lot of static electricity has difficulty in handling and compressing to form a tablet when formulated, it is very difficult to implement a preparation with a uniform drug content. Accordingly, in relation to the static electricity-inducing capability and flowability of the three types of crystal form I, crystal form II, and the amorphous form, the compressibility of each preparation containing these drugs was examined.\nThe Carr index is used as an indication of the compressibility of a preparation and is related to convenience in formulation, that is, static electricity-inducing capability, flowability, and uniformity of drug content.\nThe Carr Index (CI) is calculated as follows. CI=100×(1−BD/TD) • BD: bulk density, TD: tapped density\nThe Hausner ratio (Hr) is also an indication related to the flowability of a powder or granular drug.\nThe Hausner ratio (Hr) is calculated as follows. Hr=TD/BD\nAs a result of the test, the bulk density and tapped density of the crystal form I, the crystal form II, and the amorphous form were obtained and summarized in Table 4, through which the Carr Index (CI) and Hausner ratio (Hr) were obtained, and based on the criteria in Table 5, the evaluation results for the Carr Index (CI), Hausner ratio (Hr), and flowability are shown in Table 6."}, "[3]": {"assay": "Storage stability test (formulated powder, 60° C. and 75% RH)", "format": "physicochemical", "details": "for Purity (%) Initial: powder mix with microcrystalline cellulose and light anhydrous silicic acid; for Purity (%) Week 2 / Purity (%) Week 4 / Purity (%) Week 8 / Purity change (%) Week 8 − Initial: powder mix; for Purity (%) Week 2: 2 weeks; for Purity (%) Week 4: 4 weeks; for Purity (%) Week 8: 8 weeks; for Purity change (%) Week 8 − Initial: 8 weeks vs initial", "experimental": "In order to confirm stability when the crystal form I, crystal form II, and amorphous form of a compound of Chemical Formula 1 were formulated, powder obtained by mixing 50 mg of each sample, 149 mg of microcrystalline cellulose, and 1 mg of light anhydrous silicic acid was input into a brown glass bottle and allowed to stand in a stability chamber set under conditions of 60° C. and 75% RH, and the sample was taken out after 2 weeks, 4 weeks, 8 weeks had elapsed to confirm the purity of the compound of Chemical Formula 1 over time.\nWhen the storage period for each storage condition was reached, 35 mg of the compound of Chemical Formula 1 was taken from each sample, input into a 50 mL volumetric flask, dissolved with an appropriate amount of diluent, and marked. The resulting solution was input into a glass centrifuge tube and centrifuged at 3,000 rpm and 5° C. for 10 minutes. The sample was taken using a glass pipette and input into a HPLC vial for analysis."}, "[4]": {"details": "in vivo; cited from earlier work"}, "[5]": {"molecular_target": "free fatty acid receptor 1 (FFAR1)/a G-protein coupled receptor (GPR40) (Homo sapiens, UniProt O14842)", "sequence (O14842 whole entry, species assumed)": "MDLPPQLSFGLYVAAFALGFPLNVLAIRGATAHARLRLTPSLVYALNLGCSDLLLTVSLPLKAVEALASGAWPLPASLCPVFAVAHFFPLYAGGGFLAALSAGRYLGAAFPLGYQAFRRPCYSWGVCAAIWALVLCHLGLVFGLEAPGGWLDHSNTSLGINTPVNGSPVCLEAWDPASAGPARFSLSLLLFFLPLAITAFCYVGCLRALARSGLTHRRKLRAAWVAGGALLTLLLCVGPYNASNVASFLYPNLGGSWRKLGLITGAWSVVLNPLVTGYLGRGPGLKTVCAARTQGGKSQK", "details": "cited from earlier work"}, "[6]": {"details": "after 1 month of the thermal stress test (FIG. 10)"}}, "data": [{"smiles": "CC#C[C@@H](CC(=O)O)c1ccc(OCc2cccc(C3=CCC4(CC3)OCCO4)c2)cc1", "note": "[Amorphous form, (3S)-3-(4-(3-(1,4-dioxaspiro[4,5]dec-7-en-8-yl)benzyloxy)phenyl)hex-4-inoic acid]", "values": [{"measurement": "Change in properties (appearance)", "setting": "[1]; after 6 days of the thermal stress test (FIG. 10)", "value": "turned yellow"}, {"measurement": "Purity (%) Initial", "setting": "[1]", "value": 99.33, "unit": "%"}, {"measurement": "Purity change (%) Month 1 − Initial", "setting": "[1]", "value": "−11.69", "unit": "%"}, {"measurement": "Purity (%) Month 1", "setting": "[1]", "value": 87.64, "unit": "%"}, {"measurement": "Purity (%) Day 6", "setting": "[1]", "value": 96.76, "unit": "%"}, {"measurement": "Purity (%) Day 14", "setting": "[1]", "value": 94.35, "unit": "%"}, {"measurement": "Carr Index (CI)", "setting": "[2]", "value": 18.48}, {"measurement": "Hausner ratio (Hr)", "setting": "[2]", "value": 1.23}, {"measurement": "Description of flow", "setting": "[2]", "value": "Fair (16-20)"}, {"measurement": "Bulk density BD", "setting": "[2]", "value": 0.353, "unit": "g/mL"}, {"measurement": "Tapped density TD", "setting": "[2]", "value": 0.433, "unit": "g/mL"}, {"measurement": "Purity (%) Initial", "setting": "[3]", "value": 100.6, "unit": "%"}, {"measurement": "Purity (%) Week 2", "setting": "[3]; 60° C. and 75% RH", "value": 91.5, "unit": "%"}, {"measurement": "Purity (%) Week 4", "setting": "[3]; 60° C. and 75% RH", "value": 86.8, "unit": "%"}, {"measurement": "Purity (%) Week 8", "setting": "[3]; 60° C. and 75% RH", "value": 77.5, "unit": "%"}, {"measurement": "Purity change (%) Week 8 − Initial", "setting": "[3]; 60° C. and 75% RH", "value": "−23.1", "unit": "%"}]}, {"smiles": "CC#C[C@@H](CC(=O)O)c1ccc(OCc2cccc(C3=CCC4(CC3)OCCO4)c2)cc1", "note": "[Crystal form I, (3S)-3-(4-(3-(1,4-dioxaspiro[4,5]dec-7-en-8-yl)benzyloxy)phenyl)hex-4-inoic acid]", "values": [{"measurement": "Change in XRD pattern before and after thermal stress", "setting": "[1]", "value": "no significant change in XRD pattern peak"}, {"measurement": "Change in properties (appearance)", "setting": "[1]; [6]", "value": "no significant change in properties"}, {"measurement": "Purity (%) Initial", "setting": "[1]", "value": 99.40, "unit": "%"}, {"measurement": "Purity change (%) Month 1 − Initial", "setting": "[1]", "value": "−3.65", "unit": "%"}, {"measurement": "Purity (%) Month 1", "setting": "[1]", "value": 95.75, "unit": "%"}, {"measurement": "Purity (%) Day 6", "setting": "[1]", "value": 98.67, "unit": "%"}, {"measurement": "Purity (%) Day 14", "setting": "[1]", "value": 97.91, "unit": "%"}, {"measurement": "Carr Index (CI)", "setting": "[2]", "value": 13.41}, {"measurement": "Hausner ratio (Hr)", "setting": "[2]", "value": 1.15}, {"measurement": "Description of flow", "setting": "[2]", "value": "Good (11-15)"}, {"measurement": "Bulk density BD", "setting": "[2]", "value": 0.381, "unit": "g/mL"}, {"measurement": "Tapped density TD", "setting": "[2]", "value": 0.44, "unit": "g/mL"}, {"measurement": "Storage stability ranking", "setting": "[3]; 60° C. and 75% RH, compared among crystal form I, crystal form II, amorphous form", "value": "stablest"}, {"measurement": "Purity (%) Initial", "setting": "[3]", "value": 100.2, "unit": "%"}, {"measurement": "Purity (%) Week 2", "setting": "[3]; 60° C. and 75% RH", "value": 101.8, "unit": "%"}, {"measurement": "Purity (%) Week 4", "setting": "[3]; 60° C. and 75% RH", "value": 100.9, "unit": "%"}, {"measurement": "Purity (%) Week 8", "setting": "[3]; 60° C. and 75% RH", "value": 99.9, "unit": "%"}, {"measurement": "Purity change (%) Week 8 − Initial", "setting": "[3]; 60° C. and 75% RH", "value": "−0.3", "unit": "%"}]}, {"smiles": "CC#C[C@@H](CC(=O)O)c1ccc(OCc2cccc(C3=CCC4(CC3)OCCO4)c2)cc1", "note": "[Crystal form II, (3S)-3-(4-(3-(1,4-dioxaspiro[4,5]dec-7-en-8-yl)benzyloxy)phenyl)hex-4-inoic acid]", "values": [{"measurement": "Change in XRD pattern before and after thermal stress", "setting": "[1]", "value": "shifting of specific peaks"}, {"measurement": "Change in properties (appearance)", "setting": "[1]; [6]", "value": "no significant change in properties"}, {"measurement": "Purity (%) Initial", "setting": "[1]", "value": 99.53, "unit": "%"}, {"measurement": "Purity change (%) Month 1 − Initial", "setting": "[1]", "value": "−3.75", "unit": "%"}, {"measurement": "Purity (%) Month 1", "setting": "[1]", "value": 95.78, "unit": "%"}, {"measurement": "Purity (%) Day 6", "setting": "[1]", "value": 98.73, "unit": "%"}, {"measurement": "Purity (%) Day 14", "setting": "[1]", "value": 97.80, "unit": "%"}, {"measurement": "Compressibility test results (in words)", "setting": "[2]", "value": "very poor"}, {"measurement": "Carr Index (CI)", "setting": "[2]", "value": 54.05}, {"measurement": "Hausner ratio (Hr)", "setting": "[2]", "value": 2.18}, {"measurement": "Description of flow", "setting": "[2]", "value": "Very, very poor"}, {"measurement": "Static electricity-inducing capability", "setting": "[2]; filling a die for tableting", "value": "excessively caused static electricity"}, {"measurement": "Bulk density BD", "setting": "[2]", "value": 0.136, "unit": "g/mL"}, {"measurement": "Tapped density TD", "setting": "[2]", "value": 0.296, "unit": "g/mL"}, {"measurement": "Purity (%) Initial", "setting": "[3]", "value": 99.1, "unit": "%"}, {"measurement": "Purity (%) Week 2", "setting": "[3]; 60° C. and 75% RH", "value": 96.2, "unit": "%"}, {"measurement": "Purity (%) Week 4", "setting": "[3]; 60° C. and 75% RH", "value": 92.3, "unit": "%"}, {"measurement": "Purity (%) Week 8", "setting": "[3]; 60° C. and 75% RH", "value": 88, "unit": "%"}, {"measurement": "Purity change (%) Week 8 − Initial", "setting": "[3]; 60° C. and 75% RH", "value": "−11.1", "unit": "%"}]}, {"smiles": "CC#C[C@@H](CC(=O)O)c1ccc(OCc2cccc(C3=CCC4(CC3)OCCO4)c2)cc1", "note": "[compound of Chemical Formula 1, (3S)-3-(4-(3-(1,4-dioxaspiro[4,5]dec-7-en-8-yl)benzyloxy)phenyl)hex-4-inoic acid]", "values": [{"measurement": "Blood sugar lowering effect", "setting": "[4]", "value": "excellent blood sugar lowering effect"}, {"measurement": "Activation of FFAR1/GPR40 (increase of intracellular calcium concentration)", "setting": "[5]", "value": "activates"}]}]}
